From patent US10131652B2, “Pyrimidinyloxy benzene derivatives as herbicides” (E. I. DU PONT DE NEMOURS AND COMPANY, priority 2014, dated 2018)
Where two headings read alike, the source gives them in different places.

Experiments:
Assay in all cases: Test D pre-/postemergence plant response
Format in all cases: in vivo
[1] = system: velvetleaf (Abutilon theophrasti); settings: Abutilon theophrasti; for pest or weed control at 16 g/ha: 16 g ai/ha; for pest or weed control at 31 g/ha: 31 g ai/ha; for pest or weed control at 62 g/ha: 62 g ai/ha; for pest or weed control at 125 g/ha: 125 g ai/ha
Summary of the method: (§1)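 Preemergence: seeds in loam/sand blend treated with test chemicals in non-phytotoxic solvent with surfactant; postemergence: plants at 2–18 cm (1- to 4-leaf stage) in peat-based medium sprayed likewise. Greenhouse 13 to 15 days, then visual rating vs controls, 0 (no effect) to 100 (complete control).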

soybean (Glycine max) = settings: Glycine max; for plant injury at 16 g/ha: 16 g ai/ha; for plant injury at 31 g/ha: 31 g ai/ha; for plant injury at 62 g/ha: 62 g ai/ha; for plant injury at 125 g/ha: 125 g ai/ha
Summary of the method: as §1

[2] = system: barnyardgrass (Echinochloa crus-galli); settings: Echinochloa crus-galli; for pest or weed control at 16 g/ha: 16 g ai/ha; for pest or weed control at 31 g/ha: 31 g ai/ha; for pest or weed control at 62 g/ha: 62 g ai/ha; for pest or weed control at 125 g/ha: 125 g ai/ha
Summary of the method: as §1

[3] = system: blackgrass (Alopecurus myosuroides); settings: Alopecurus myosuroides; for pest or weed control at 16 g/ha: 16 g ai/ha; for pest or weed control at 31 g/ha: 31 g ai/ha; for pest or weed control at 62 g/ha: 62 g ai/ha; for pest or weed control at 125 g/ha: 125 g ai/ha
Summary of the method: as §1

[4] = system: morningglory (Ipomoea coccinea); settings: Ipomoea; for pest or weed control at 16 g/ha: 16 g ai/ha; for pest or weed control at 31 g/ha: 31 g ai/ha; for pest or weed control at 62 g/ha: 62 g ai/ha; for pest or weed control at 125 g/ha: 125 g ai/ha
Summary of the method: as §1

[5] = system: giant foxtail (Setaria faberii); settings: Setaria faberi; for pest or weed control at 16 g/ha: 16 g ai/ha; for pest or weed control at 31 g/ha: 31 g ai/ha; for pest or weed control at 62 g/ha: 62 g ai/ha; for pest or weed control at 125 g/ha: 125 g ai/ha
Summary of the method: as §1

[6] = pre-emergence, Preemergence, scale 0 to 100 (0 no effect, 100 complete control), read-out: Plant response rating, Velvetleaf
[7] = pre-emergence, Preemergence, scale 0 to 100 (0 no effect, 100 complete control), read-out: Plant response rating, Soybean
[8] = post-emergence, Postemergence, scale 0 to 100, 0 no effect, 100 complete control, read-out: Plant response rating, Barnyardgrass
[9] = pre-emergence, Preemergence, scale 0 to 100 (0 no effect, 100 complete control), read-out: Plant response rating, Barnyardgrass
[10] = post-emergence, Postemergence, scale 0 to 100, 0 no effect, 100 complete control, read-out: Plant response rating, Blackgrass
[11] = pre-emergence, Preemergence, scale 0 to 100 (0 no effect, 100 complete control), read-out: Plant response rating, Blackgrass
[12] = pre-emergence, Preemergence, scale 0 to 100 (0 no effect, 100 complete control), read-out: Plant response rating, Morningglory
[13] = post-emergence, Postemergence, scale 0 to 100, 0 no effect, 100 complete control, read-out: Plant response rating, Foxtail, Giant
[14] = pre-emergence, Preemergence, scale 0 to 100 (0 no effect, 100 complete control), read-out: Plant response rating, Foxtail, Giant

FC(F)(F)c1cc(-c2ccccc2Oc2ncc(Cl)cn2)no1 [Compound 200, 5-chloro-2-[2-[5-(trifluoromethyl)-3-isoxazolyl]phenoxy]pyrimidine]
pest or weed control at 16 g/ha ([1]; post-emergence, Postemergence, read-out: Plant response rating (scale 0 to 100), Velvetleaf): 30%
pest or weed control at 31 g/ha ([1]; post-emergence, Postemergence, scale 0 to 100 (0 no effect, 100 complete control), read-out: Velvetleaf plant response rating): 60%
pest or weed control at 62 g/ha ([1]; post-emergence, Postemergence, scale 0 to 100, 0 no effect, 100 complete control, read-out: Velvetleaf plant response rating): 70%
pest or weed control at 125 g/ha ([1]; post-emergence, Postemergence, scale 0 to 100, 0 no effect, 100 complete control, read-out: Plant response rating, Velvetleaf): 75%
pest or weed control at 125 g/ha ([1]; pre-emergence, Preemergence, read-out: Plant response rating (scale 0 to 100), Velvetleaf): 100%
pest or weed control at 16 g/ha [1, 6]: 100%
pest or weed control at 31 g/ha [1, 6]: 100%
pest or weed control at 62 g/ha [1, 6]: 100%
plant injury at 16 g/ha (soybean (Glycine max); post-emergence, Postemergence, read-out: Plant response rating (scale 0 to 100), Soybean): 60%
plant injury at 31 g/ha (soybean (Glycine max); post-emergence, Postemergence, scale 0 to 100 (0 no effect, 100 complete control), read-out: Soybean plant response rating): 85%
plant injury at 62 g/ha (soybean (Glycine max); post-emergence, Postemergence, scale 0 to 100, 0 no effect, 100 complete control, read-out: Soybean plant response rating): 90%
plant injury at 125 g/ha (soybean (Glycine max); post-emergence, Postemergence, scale 0 to 100, 0 no effect, 100 complete control, read-out: Plant response rating, Soybean): 98%
plant injury at 125 g/ha (soybean (Glycine max); pre-emergence, Preemergence, read-out: Plant response rating (scale 0 to 100), Soybean): 85%
plant injury at 16 g/ha (soybean (Glycine max); [7]): 100%
plant injury at 31 g/ha (soybean (Glycine max); [7]): 10%
plant injury at 62 g/ha (soybean (Glycine max); [7]): 40%
pest or weed control at 16 g/ha ([2]; post-emergence, Postemergence, read-out: Plant response rating (scale 0 to 100), Barnyardgrass): 5%
pest or weed control at 31 g/ha ([2]; post-emergence, Postemergence, scale 0 to 100 (0 no effect, 100 complete control), read-out: Barnyardgrass plant response rating): 10%
pest or weed control at 62 g/ha [2, 8]: 10%
pest or weed control at 125 g/ha [2, 8]: 15%
pest or weed control at 125 g/ha ([2]; pre-emergence, Preemergence, read-out: Plant response rating (scale 0 to 100), Barnyardgrass): 100%
pest or weed control at 16 g/ha [2, 9]: 35%
pest or weed control at 31 g/ha [2, 9]: 95%
pest or weed control at 62 g/ha [2, 9]: 100%
pest or weed control at 16 g/ha ([3]; post-emergence, Postemergence, read-out: Plant response rating (scale 0 to 100), Blackgrass): 30%
pest or weed control at 31 g/ha ([3]; post-emergence, Postemergence, scale 0 to 100 (0 no effect, 100 complete control), read-out: Blackgrass plant response rating): 30%
pest or weed control at 62 g/ha [3, 10]: 40%
pest or weed control at 125 g/ha [3, 10]: 90%
pest or weed control at 125 g/ha ([3]; pre-emergence, Preemergence, read-out: Plant response rating (scale 0 to 100), Blackgrass): 90%
pest or weed control at 16 g/ha [3, 11]: 85%
pest or weed control at 31 g/ha [3, 11]: 90%
pest or weed control at 62 g/ha [3, 11]: 90%
pest or weed control at 16 g/ha ([4]; post-emergence, Postemergence, read-out: Plant response rating (scale 0 to 100), Morningglory): 55%
pest or weed control at 31 g/ha ([4]; post-emergence, Postemergence, scale 0 to 100 (0 no effect, 100 complete control), read-out: Morningglory plant response rating): 50%
pest or weed control at 62 g/ha ([4]; post-emergence, Postemergence, scale 0 to 100, 0 no effect, 100 complete control, read-out: Morningglory plant response rating): 85%
pest or weed control at 125 g/ha ([4]; post-emergence, Postemergence, scale 0 to 100, 0 no effect, 100 complete control, read-out: Plant response rating, Morningglory): 98%
pest or weed control at 125 g/ha ([4]; pre-emergence, Preemergence, read-out: Plant response rating (scale 0 to 100), Morningglory): 90%
pest or weed control at 16 g/ha [4, 12]: 5%
pest or weed control at 31 g/ha [4, 12]: 45%
pest or weed control at 62 g/ha [4, 12]: 70%
pest or weed control at 16 g/ha ([5]; post-emergence, Postemergence, read-out: Plant response rating (scale 0 to 100), Foxtail, Giant): 5%
pest or weed control at 31 g/ha ([5]; post-emergence, Postemergence, scale 0 to 100 (0 no effect, 100 complete control), read-out: Foxtail, Giant plant response rating): 20%
pest or weed control at 62 g/ha [5, 13]: 10%
pest or weed control at 125 g/ha [5, 13]: 15%
pest or weed control at 125 g/ha ([5]; pre-emergence, Preemergence, read-out: Plant response rating (scale 0 to 100), Foxtail, Giant): 100%
pest or weed control at 16 g/ha [5, 14]: 95%
pest or weed control at 31 g/ha [5, 14]: 100%
pest or weed control at 62 g/ha [5, 14]: 100%
